# System: neural stem cells
# Test: Effect of PACAP in lieu of forskolin in the TH cocktail on neural stem cell culture
# Format: cell-based, mice
# Settings: 2 nM PACAP versus 1 μM forskolin in the TH cocktail
# Experimental: A control experiments using 1 μM forskolin and no PACAP was performed in parallel as a comparison.
substance,measurement,value
pituitary adenylate cyclase activating polypeptide [PACAP],effectiveness in the production of TH positive neurons,more effective than forskolin
